Results reported in ChEMBL document CHEMBL2074361, “Effect of mdr1a P-glycoprotein gene disruption, gender, and substrate concentration on brain uptake of selected compounds” (Pharm Res, 2001).

Biological target: ATP-dependent translocase ABCB1 (Mus musculus, UniProt P21447)
Experiment: TP_TRANSPORTER: increase in brain concentration in mdr1a(-/-) mouse
Format: functional, organism-based
Details: in vivo

ATP-dependent translocase ABCB1, sequence (P21447 whole entry): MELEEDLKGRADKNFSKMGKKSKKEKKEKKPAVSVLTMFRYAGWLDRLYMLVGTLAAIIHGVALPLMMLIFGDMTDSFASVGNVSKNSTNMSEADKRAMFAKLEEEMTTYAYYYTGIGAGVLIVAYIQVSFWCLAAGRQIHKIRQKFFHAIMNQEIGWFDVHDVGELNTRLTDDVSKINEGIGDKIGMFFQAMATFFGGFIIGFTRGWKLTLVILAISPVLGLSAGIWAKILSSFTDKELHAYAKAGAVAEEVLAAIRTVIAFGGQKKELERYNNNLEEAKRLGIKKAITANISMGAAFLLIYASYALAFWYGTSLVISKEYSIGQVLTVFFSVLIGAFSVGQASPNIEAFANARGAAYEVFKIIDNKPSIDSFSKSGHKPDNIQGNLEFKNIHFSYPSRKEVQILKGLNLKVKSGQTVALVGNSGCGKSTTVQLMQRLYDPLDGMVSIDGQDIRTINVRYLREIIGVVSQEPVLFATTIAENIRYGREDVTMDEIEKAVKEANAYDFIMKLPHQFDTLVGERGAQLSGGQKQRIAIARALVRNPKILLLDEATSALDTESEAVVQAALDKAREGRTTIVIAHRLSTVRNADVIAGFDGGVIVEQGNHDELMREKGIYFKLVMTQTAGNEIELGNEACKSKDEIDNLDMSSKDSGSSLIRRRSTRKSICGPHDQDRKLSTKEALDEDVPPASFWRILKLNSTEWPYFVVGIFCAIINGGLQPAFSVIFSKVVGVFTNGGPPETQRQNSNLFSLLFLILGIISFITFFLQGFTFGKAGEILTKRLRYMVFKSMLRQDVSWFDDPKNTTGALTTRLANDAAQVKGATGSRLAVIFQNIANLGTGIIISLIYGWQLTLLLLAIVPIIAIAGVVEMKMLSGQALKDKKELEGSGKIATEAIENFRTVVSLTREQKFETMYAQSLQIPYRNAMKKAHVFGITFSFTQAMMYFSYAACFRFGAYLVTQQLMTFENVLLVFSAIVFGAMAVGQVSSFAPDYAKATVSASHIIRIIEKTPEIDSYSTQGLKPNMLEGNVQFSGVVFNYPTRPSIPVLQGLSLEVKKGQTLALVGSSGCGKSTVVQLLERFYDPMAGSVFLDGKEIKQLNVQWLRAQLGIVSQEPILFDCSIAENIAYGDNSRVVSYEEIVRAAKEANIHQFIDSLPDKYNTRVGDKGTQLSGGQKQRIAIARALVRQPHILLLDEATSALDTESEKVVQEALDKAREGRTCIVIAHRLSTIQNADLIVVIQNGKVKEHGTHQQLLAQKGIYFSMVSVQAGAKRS

| Structure (SMILES) | Activity |
| --- | --- |
| CN1CC[C@]23c4c5ccc(O)c4O[C@H]2[C@@H](O)C=C[C@H]3[C@H]1C5 [MORPHINE] | substrate [+] |
| C=C[C@H]1C[N@@]2CC[C@H]1C[C@@H]2[C@@H](O)c1ccnc2ccc(OC)cc12 [QUINIDINE] | substrate [+] |
